What all share (format): in vivo
Test [1] relates to hippocampal neurons. The test can be described thus: Golgi staining, dendritic spine density in mouse brain neurons. The conditions noted are these: hippocampal neurons of APP/PS1ΔE9 mice treated for 2 months (C-D in FIG. 3). How it is done: Gemfibrozil was administered to 8-month-old APP/PS1ΔE9 mice (male and female halves). Gemfibrozil was first dissolved in dimethyl sulfoxide (DMSO) at a concentration of 50 mg/mL, and then diluted to a final concentration of 50 μg/mL with mouse drinking water to obtain a drug solution. The mice in the administration group were allowed to freely drink the drug solution containing gemfibrozil, in which the final concentration of DMSO in the solution was 0.1%; and the mice in the control group were allowed to drink water containing 0.1% DMSO freely. All drinking devices contained with Gemfibrozil were wrapped in aluminum foil to prevent decomposition by exposure. During dosing, the drug solution was replaced every 2 days. Mice were measured daily for water consumption. After 2 months of dosing, all mice were subjected to behavioural experiments. Mice were placed in the laboratory to be behaviourally tested one hour prior to the start of daily behavioural studies, and all behavioural experiments were completed between 9 and 17 o'clock. All experiments involving animals were approved by Animal Ethics Committee of the Kunming Institute of Zoology, CAS. 7. […]

Test [2] deals with Aβ plaques. The test can be described thus: Immunohistochemical staining of Aβ plaques with Aβ (4G8) antibodies. The settings on record: brain tissue of APP/PS1ΔE9 mouse, vs control group (A-C in FIG. 5).
For test [3], the system named is PSD-95 protein. Kind of test: Immunohistochemical staining of mouse brain tissue for PSD-95. The settings on record: hippocampus of APP/PS1ΔE9 mice treated for 2 months (A-B in FIG. 3).
Test [4] has as its system insoluble Aβ. Kind of test: ELISA of insoluble Aβ in mouse brain tissue. The conditions noted are these: hippocampus and cortex tissues, vs control group (C in FIG. 4). As for the experimental part: Gemfibrozil was administered to 8-month-old APP/PS1ΔE9 mice (male and female halves). Gemfibrozil was first dissolved in dimethyl sulfoxide (DMSO) at a concentration of 50 mg/mL, and then diluted to a final concentration of 50 μg/mL with mouse drinking water to obtain a drug solution. The mice in the administration group were allowed to freely drink the drug solution containing gemfibrozil, in which the final concentration of DMSO in the solution was 0.1%; and the mice in the control group were allowed to drink water containing 0.1% DMSO freely. All drinking devices contained with Gemfibrozil were wrapped in aluminum foil to prevent decomposition by exposure. During dosing, the drug solution was replaced every 2 days. Mice were measured daily for water consumption. After 2 months of dosing, all mice were subjected to behavioural experiments. Mice were placed in the laboratory to be behaviourally tested one hour prior to the start of daily behavioural studies, and all behavioural experiments were completed between 9 and 17 o'clock. All experiments involving animals were approved by Animal Ethics Committee of the Kunming Institute of Zoology, CAS. 8. Content of insoluble Aβ in mouse brain tissue by ELISA The content of insoluble Aβ in brain tissue was detected by an ELISA kit (Elabscience), and the experiment was performed according to the instructions of the ELISA kit.
A general note: In an ELISA, binding on a coated surface is turned into a signal by an enzyme label.

In the case of `Cc1ccc(C)c(OCCCC(C)(C)C(=O)O)c1` [Gemfibrozil, 2,2-dimethyl-5-(2,5-dimethylphenoxy) pentanoic acid], the dendritic spine density entry in test [1] is “significantly up-regulated”. Also, in test [2], the “deposition of Aβ plaques labeled with Aβ (4G8) antibodies” value is “significantly reduced”. Also, in test [3], the PSD-95 immunoreactivity entry is “significantly up-regulated”. In test [4], the “amount of insoluble Aβ40” value is reported as “significantly reduced”; the “amount of insoluble Aβ42” value is reported as “significantly reduced”; the “ratio of insoluble Aβ42 and Aβ40” value was “did not change significantly”.

The values are drawn from patent publication US12048680B2, “Use of Gemfibrozil and derivative thereof for treatment and/or prevention of neurodegenerative disease” (Kunming Institute of Zoology Chinese Academy of Sciences, priority 2018, dated 2024).
